Assay results taken from patent US9901592B2 (priority 2008, dated 2018).
In brackets after ≈: the same amount, converted by molar mass. Read-outs that look alike come from different tables or passages of the source.

How the values were obtained:
[1] = tested on: S. pneumoniae; assay: neutropenic mouse thigh infection; format: in vivo; conditions: QD, PO
[2] = tested on: streptococci; assay: organism not typed; format: cell-based
[3] = tested on: S. pneumoniae; assay: neutropenic mouse thigh infection; format: in vivo; conditions: PO
Protocol: Example. Neutropenic Mouse Thigh Infection. Mice were rendered neutropenic with IP injections of cyclophosamide at day −4 and day −1 of 150 mg/Kg and 100 mg/Kg, respectively. On day 0 mice were infected with approximately 5×10^5 CFU/ml of bacteria in a 0.1 ml volume into the right thigh. At 1.5 hours post infection mice received treatment via oral gavage. One group of infected mice were euthanized and thigh processed for bacterial titers to serve as T=0 controls. Twenty-four hours post treatment, the remaining mice were euthanized, thighs aseptically removed, weighed, homogenized, serially diluted and plated on bacterial growth media. CFUs per gram of thigh were calculated after overnight incubation of bacterial plates. The amount of test article required to achieve 1, 2, and 3 loge reductions from 24 hour control thighs were calculated. Additional studies were performed that fractionated the single treatment dose (Q24) into two (Q12), three (Q8) and four (Q6) equivalent doses to determine the pharmacodynamic nature of this compound. Further analysis includes static dose, EC50, 1 log kill and maximal effect (Emax).

[4] = tested on: S. pneumoniae; assay: mouse systemic infection model (PD50); format: in vivo
[5] = tested on: S. pyogenes ATCC 8668; assay: mouse subcutaneous abscess model; format: in vivo; conditions: 48 hr. post infection
Protocol: Example. Mouse Subcutaneous Abscess. Bacteria were prepared from an overnight plate culture by re-suspending in saline and adjusting the suspension to a 0.1 OD at 625 nm of a 1:10 dilution. The adjusted bacterial suspension was mixed 1:2 with cyclodextran beads prepared as per package instructions. The right flanks of the mice were shaven and injected subcutaneously with 0.2 ml of the bacterial inoculum. Two hours post infection mice were treated via oral gavage with either test article or control drug. 48 hours post infection, mice were euthanized, abscesses aseptically removed, homogenized, serially diluted and plated on bacterial growth agar. After overnight incubation, colonies were counted and CFUs/gram of abscess were determined.
Example. Mouse Subcutaneous Abscess˜S. pyogenes ATCC 8668 (Average Log10 CFU/gram of Abscess). Abscess processing 48 hours post infection.

[6] = tested on: S. pyogenes; assay: mouse systemic infection model (PD50); format: in vivo
[7] = tested on: S. pneumoniae; assay: MIC of the strains of the mouse systemic infection model; format: cell-based; conditions: Streptococcus pneumoniae
[8] = tested on: S. pneumoniae; assay: microbe, parasite or virus in culture; format: cell-based; conditions: Streptococcus pneumoniae
[9] = tested on: S. pyogenes; assay: microbe, parasite or virus in culture; format: cell-based; conditions: for MIC: Streptococcus pyogenes
[10] = tested on: S. pyogenes; format: cell-based; conditions: for Mutant selection frequencies: S. pyogenes
[11] = S. pneumoniae (macrolide susceptible)

CC[C@H]1OC(=O)[C@H](C)[C@@H](O[C@H]2C[C@@](C)(OC)[C@@H](O)[C@H](C)O2)[C@H](C)[C@@H](O[C@@H]2O[C@H](C)C[C@H](N(C)C)[C@H]2O)[C@](C)(OC)C[C@@H](C)C(=O)[C@H](C)[C@@H](O)[C@]1(C)O [CLR, clarithromycin]
Dose for 1 log10 Reduction from 24 hour controls ([1]; S. pneumoniae 1629): 4.5 mg/Kg | Dose for 3 log10 Reduction from 24 hour controls ([1]; S. pneumoniae 1629): 13.5 mg/Kg | Dose for 1 log10 Reduction from 24 hour controls ([1]; S. pneumoniae 6303): 5.5 mg/Kg | Dose for 2 log10 Reduction from 24 hour controls ([1]; S. pneumoniae 6303): 9.2 mg/Kg | Dose for 3 log10 Reduction from 24 hour controls ([1]; S. pneumoniae 6303): 14.0 mg/Kg | MIC50 [2]: 0.03 µg/mL (≈ 0.0401 µM) | MIC90 [2]: 0.03 µg/mL (≈ 0.0401 µM) | MIC Range [2]: ≦0.008-0.25 μg/ml | Max. change in log10CFUs from 24 hr. controls ([3]; S. pneumoniae 1629): −5.75 log10CFUs | Dose for 2 log10 Reduction from 24 hour controls ([3]; S. pneumoniae 1629, QD): 9.0 mg/Kg | Max. change in log10CFUs from 24 hr. controls ([3]; S. pneumoniae 6303): −5.20 log10CFUs | PD50 [4, 11]: 32.1 mg/kg | PD50 ([4]; S. pneumoniae (mefR)): >30 mg/kg | PD50 ([4]; S. pneumoniae serotype 19A): 5.03 mg/kg | Average Log10 CFU/gram of Abscess ([5]; 10 mg/Kg): 7.63 Log10 CFU/gram | Average Log10 CFU/gram of Abscess ([5]; 20 mg/Kg): 7.82 Log10 CFU/gram | PD50 ([6]; S. pyogenes (erythromycin R)): 22.8 mg/kg | PD50 ([6]; S. pyogenes (macrolide susceptible)): 24.8 mg/kg | MIC [7, 11]: > 16 µg/mL | MIC ([7]; S. pneumoniae (mefR), read-out: MIC): 0.5 µg/mL | MIC ([7]; S. pneumoniae serotype 19A, read-out: MIC): > 16 µg/mL | MIC90 [8]: > 32 µg/mL | strains with resistant clones / strains tested ([9]; S. pyogenes): 1/4 | MIC ([9]; read-out: Initial MIC, strain 237 Macrolide-R [LA mutation], parent): 0.25 µg/mL (≈ 0.334 µM) | MIC ([9]; read-out: Initial MIC, strain 2011 Macrolide-R [mef(A)], parent): 4 µg/mL (≈ 5.35 µM) | MIC ([9]; read-out: Initial MIC, strain 2094 Macrolide-R [erm(A)], parent): 0.5 µg/mL (≈ 0.668 µM) | MIC ([9]; read-out: Initial MIC, strain 2132 Macrolide-S, parent): 0.03 µg/mL (≈ 0.0401 µM) | MIC ([9]; read-out: Initial MIC, strain 2368 Macrolide-R [erm(B)], parent): > 64 µg/mL | MIC ([9]; read-out: MIC of parent of resistant clone, S. pyogenes): 500 µg/mL | MIC ([9]; read-out: MIC of parents of resistant clones, S. pyogenes): 0.5 µg/mL | MIC ([9]; read-out: MIC of resistant clones, S. pyogenes): > 64 µg/mL | MIC ([9]; read-out: Parental MICs, S. pyogenes, 5 strains with varying resistotypes): 0.03 to 4 µg/mL (≈ 0.0401 to 5.35 µM) | MIC ([9]; read-out: Selected Resistance (MIC), strain 237 Macrolide-R [LA mutation], after serial passages in the drug): 1 µg/mL (≈ 1.34 µM) | MIC ([9]; read-out: Selected Resistance (MIC), strain 2011 Macrolide-R [mef(A)], after serial passages in the drug): 8 µg/mL (≈ 10.7 µM) | MIC ([9]; read-out: Selected Resistance (MIC), strain 2094 Macrolide-R [erm(A)], after serial passages in the drug): > 64 µg/mL | MIC ([9]; read-out: Selected Resistance (MIC), strain 2132 Macrolide-S, after serial passages in the drug): 0.016 µg/mL (≈ 0.0214 µM) | days until resistant clones (MIC increase) ([9]; daily passages, max. 50): 6 days | Retest MIC after 10 Antibioticfree Subcultures ([9]; strain 237 Macrolide-R [LA mutation], clone selected with CEM-101): 1 µg/mL | Retest MIC after 10 Antibioticfree Subcultures ([9]; strain 237 Macrolide-R [LA mutation], clone selected with CLN): 0.5 µg/mL | Retest MIC after 10 Antibioticfree Subcultures ([9]; strain 2011 Macrolide-R [mef(A)], clone selected with AZI): 4 µg/mL | Retest MIC after 10 Antibioticfree Subcultures ([9]; strain 2094 Macrolide-R [erm(A)], clone selected with AZI): 1 µg/mL | Retest MIC after 10 Antibioticfree Subcultures ([9]; strain 2094 Macrolide-R [erm(A)], clone selected with CEM-101): 8 µg/mL | Retest MIC after 10 Antibioticfree Subcultures ([9]; strain 2094 Macrolide-R [erm(A)], clone selected with CLN): 1 µg/mL | Retest MIC after 10 Antibioticfree Subcultures ([9]; strain 2094 Macrolide-R [erm(A)], clone selected with CLR): >64 µg/mL | Retest MIC after 10 Antibioticfree Subcultures ([9]; strain 2094 Macrolide-R [erm(A)], clone selected with TEL): 8 µg/mL | Retest MIC after 10 Antibioticfree Subcultures ([9]; strain 2132 Macrolide-S, clone selected with AZI): 0.25b μg/ml | Retest MIC after 10 Antibioticfree Subcultures ([9]; strain 2368 Macrolide-R [erm(B)], clone selected with CEM-101): >64 µg/mL | Retest MIC after 10 Antibioticfree Subcultures ([9]; strain 2368 Macrolide-R [erm(B)], clone selected with TEL): >64 µg/mL | Mutant selection frequencies ([10]; at 2×MIC): <1.0×10^−10-1.7×10^−7 | Mutant selection frequencies ([10]; at 8×MIC): <1.0×10^−10-5.0×10^−9 | single step mutation frequency ([10]; strain 237 Macrolide-R [L4 mutation], 2 × MIC): <3.3 × 10^−10 | single step mutation frequency ([10]; strain 237 Macrolide-R [L4 mutation], 4 × MIC): <3.3 × 10^−10 | single step mutation frequency ([10]; strain 237 Macrolide-R [L4 mutation], 8 × MIC): <3.3 × 10^−10 | single step mutation frequency ([10]; strain 2094 Macrolide-R [erm(A)], 2 × MIC): 1.7 × 10^−7 | single step mutation frequency ([10]; strain 2094 Macrolide-R [erm(A)], 4 × MIC): 1.0 × 10^−7 | single step mutation frequency ([10]; strain 2094 Macrolide-R [erm(A)], 8 × MIC): 5.0 × 10^−9 | single step mutation frequency ([10]; strain 2132 Macrolide-S, 2 × MIC): <1.0 × 10^−10 | single step mutation frequency ([10]; strain 2132 Macrolide-S, 4 × MIC): <1.0 × 10^−10 | single step mutation frequency ([10]; strain 2132 Macrolide-S, 8 × MIC): <1.0 × 10^−10
